According to patent US20230081426A1, “COMPOUNDS AND METHODS FOR KRAS MODULATION AND INDICATIONS THEREFOR” (Plexxikon Inc., priority 2020, published 2023):

Key:
[1] = molecular target: T1, G12D-mutant human KRAS (amino acid residues 1-188) (Homo sapiens, UniProt P01116, G12D); assay: KRAS Binding Disruption Assay (AlphaScreen; biotinylated KRpep-2d analogue or RAF1-RBD), G12D; conditions: KRAS G12D; geometric mean; read-out: KRAS GMean IC50 (uM) MUTATION: G12D
T1 construct: G12D or G12C-mutant human KRAS (amino acid residues 1-188) with FLAG tag; made in house; host or cells: E. coli
Procedure, shortened: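 Compounds are titrated against 5-20 nM mutant KRAS and 5-20 nM of either a biotinylated KRpep-2d analogue or RAF1-RBD, incubated 1 h at 25° C. Disruption is detected as reduced Alpha signal after 1 h with donor and acceptor beads at 10 μg/mL.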

[2] = molecular target: T2, G12V-mutant human KRAS (amino acid residues 1-188) (Homo sapiens, UniProt P01116, G12V); assay: KRAS Binding Competition Assay (AlphaScreen; biotinylated KRpep-2d analogue), G12V; conditions: geometric mean, read-out: KRAS GMean IC50 (uM) MUTATION: G12V
T2 construct: G12V-mutant human KRAS (amino acid residues 1-188) with FLAG tag was purified from E. coli; made in house; host or cells: E. coli

| Compound | IC50 [1] [µM] | IC50 [2] [µM] |
| --- | --- | --- |
| CN1CCCC1COc1nc(N2C[C@H]3CC[C@@H](C2)N3C(=O)NC2CCN(C3CCCCC3)C2)c2ccc(-c3cc(O)cc4ccccc34)c(F)c2n1 (stereo partly drawn) [P-0419, (1R,5S)-N-(1-cyclohexylpyrrolidin-3-yl)-3-(8-fluoro-7-(3-hydroxynaphthalen-1-yl)-2-((1-methylpyrrolidin-2-yl)methoxy)quinazolin-4-yl)-3,8-diazabicyclo[3.2.1]octane-8-carboxamide] | 0.0001 to 10 | 10 to 100 |
| CN1CCCC1COc1nc(N2C[C@H]3CC[C@@H](C2)N3C(=O)NC2CN3CCC2CC3)c2ccc(-c3cc(O)cc4ccccc34)c(F)c2n1 (stereo partly drawn) [P-0421, (1R,5S)-3-(8-fluoro-7-(3-hydroxynaphthalen-1-yl)-2-((1-methylpyrrolidin-2-yl)methoxy)quinazolin-4-yl)-N-(quinuclidin-3-yl)-3,8-diazabicyclo[3.2.1]octane-8-carboxamide] | 0.0001 to 10 | 10 to 100 |
| CN1CCCC1COc1nc(N2C[C@H]3CC[C@@H](C2)N3C(=O)NCC(N)=O)c2ccc(-c3cc(O)cc4ccccc34)c(F)c2n1 (stereo partly drawn) [P-0423, (1R,5S)-N-(2-amino-2-oxoethyl)-3-(8-fluoro-7-(3-hydroxynaphthalen-1-yl)-2-((1-methylpyrrolidin-2-yl)methoxy)quinazolin-4-yl)-3,8-diazabicyclo[3.2.1]octane-8-carboxamide] | 0.0001 to 10 | 0.0001 to 10 |
| CN1CCC[C@H]1COc1nc(N2C[C@H]3CC[C@@H](C2)N3C(=O)[C@@H]2C[C@@H](O)CN2)c2ccc(-c3cc(O)cc4ccccc34)c(F)c2n1 [P-0425, ((1R,5S)-3-(8-fluoro-7-(3-hydroxynaphthalen-1-yl)-2-(((S)-1-methylpyrrolidin-2-yl)methoxy)quinazolin-4-yl)-3,8-diazabicyclo[3.2.1]octan-8-yl)((2S,4R)-4-hydroxypyrrolidin-2-yl)methanone] | 0.0001 to 10 | 10 to 100 |
| OCCc1nc(N2C[C@H]3CC[C@@H](C2)N3)c2ccc(-c3cc(O)cc4ccccc34)c(F)c2n1 [P-0431, 4-(4-((1R,5S)-3,8-diazabicyclo[3.2.1]octan-3-yl)-8-fluoro-2-(2-hydroxyethyl)quinazolin-7-yl)naphthalen-2-ol] | 0.0001 to 10 | 10 to 100 |
| CS(=O)(=O)CC(=O)N1[C@@H]2CC[C@H]1CN(c1nc(OCC34CCCN3CCC4)nc3c(F)c(-c4cc(O)cc5ccccc45)ccc13)C2 [P-0432, 1-((1R,5S)-3-(8-fluoro-7-(3-hydroxynaphthalen-1-yl)-2-((tetrahydro-1H-pyrrolizin-7a(5H)-yl)methoxy)quinazolin-4-yl)-3,8-diazabicyclo[3.2.1]octan-8-yl)-2-(methylsulfonyl)ethan-1-one] | 0.0001 to 10 | 0.0001 to 10 |
| O=C(Cc1n[nH]c2ccccc12)N1[C@@H]2CC[C@H]1CN(c1nc(OCC34CCCN3CCC4)nc3c(F)c(-c4cc(O)cc5ccccc45)ccc13)C2 [P-0433, 1-((1R,5S)-3-(8-fluoro-7-(3-hydroxynaphthalen-1-yl)-2-((tetrahydro-1H-pyrrolizin-7a(5H)-yl)methoxy)quinazolin-4-yl)-3,8-diazabicyclo[3.2.1]octan-8-yl)-2-(1H-indazol-3-yl)ethan-1-one] | 0.0001 to 10 | 0.0001 to 10 |
| CN1CCN(CCCS(=O)(=O)N2[C@@H]3CC[C@H]2CN(c2nc(OC[C@@H]4CCCN4C)nc4c(F)c(-c5cc(O)cc6ccccc56)ccc24)C3)CC1 [P-0434, 4-(8-fluoro-4-((1R,5S)-8-((3-(4-methylpiperazin-1-yl)propyl)sulfonyl)-3,8-diazabicyclo[3.2.1]octan-3-yl)-2-(((S)-1-methylpyrrolidin-2-yl)methoxy)quinazolin-7-yl)naphthalen-2-ol] | 0.0001 to 10 | 10 to 100 |

Continued, values first:

| IC50 [1] [µM] | IC50 [2] [µM] | Compound |
| --- | --- | --- |
| 0.0001 to 10 | 10 to 100 | CCN1CC[C@H](NC(=O)N2[C@@H]3CC[C@H]2CN(c2nc(OCC4CCCN4C)nc4c(F)c(-c5cc(O)cc6ccccc56)ccc24)C3)C1 (stereo partly drawn) [P-0418, (1R,5S)-N-((S)-1-ethylpyrrolidin-3-yl)-3-(8-fluoro-7-(3-hydroxynaphthalen-1-yl)-2-((1-methylpyrrolidin-2-yl)methoxy)quinazolin-4-yl)-3,8-diazabicyclo[3.2.1]octane-8-carboxamide] |
| 0.0001 to 10 | 10 to 100 | CONC(=O)N1[C@@H]2CC[C@H]1CN(c1nc(OCC3CCCN3C)nc3c(F)c(-c4cc(O)cc5ccccc45)ccc13)C2 (stereo partly drawn) [P-0420, (1R,5S)-3-(8-fluoro-7-(3-hydroxynaphthalen-1-yl)-2-((1-methylpyrrolidin-2-yl)methoxy)quinazolin-4-yl)-N-methoxy-3,8-diazabicyclo[3.2.1]octane-8-carboxamide] |
| 0.0001 to 10 | 0.0001 to 10 | CN1CCCC1COc1nc(N2C[C@H]3CC[C@@H](C2)N3C(=O)NO)c2ccc(-c3cc(O)cc4ccccc34)c(F)c2n1 (stereo partly drawn) [P-0422, (1R,5S)-3-(8-fluoro-7-(3-hydroxynaphthalen-1-yl)-2-((1-methylpyrrolidin-2-yl)methoxy)quinazolin-4-yl)-N-hydroxy-3,8-diazabicyclo[3.2.1]octane-8-carboxamide] |
| 0.0001 to 10 | 10 to 100 | CN1CCC[C@H]1COc1nc(N2C[C@H]3CC[C@@H](C2)N3C(=O)[C@@H](N)CO)c2ccc(-c3cc(O)cc4ccccc34)c(F)c2n1 [P-0424, (S)-2-amino-1-((1R,5S)-3-(8-fluoro-7-(3-hydroxynaphthalen-1-yl)-2-(((S)-1-methylpyrrolidin-2-yl)methoxy)quinazolin-4-yl)-3,8-diazabicyclo[3.2.1]octan-8-yl)-3-hydroxypropan-1-one] |
| 0.0001 to 10 | 10 to 100 | CNCC(=O)N1[C@@H]2CC[C@H]1CN(c1nc(OC[C@@H]3CCCN3C)nc3c(F)c(-c4cc(O)cc5ccccc45)ccc13)C2 [P-0426, 1-((1R,5S)-3-(8-fluoro-7-(3-hydroxynaphthalen-1-yl)-2-(((S)-1-methylpyrrolidin-2-yl)methoxy)quinazolin-4-yl)-3,8-diazabicyclo[3.2.1]octan-8-yl)-2-(methylamino)ethan-1-one] |
| 10 to 100 | 100 to 1000 | CN1CCC[C@H]1COc1nc(N2C[C@H]3CC[C@@H](C2)N3CC(=O)N2CCC(N)CC2)c2ccc(-c3cc(O)cc4ccccc34)c(F)c2n1 [P-0427, 1-(4-aminopiperidin-1-yl)-2-((1R,5S)-3-(8-fluoro-7-(3-hydroxynaphthalen-1-yl)-2-(((S)-1-methylpyrrolidin-2-yl)methoxy)quinazolin-4-yl)-3,8-diazabicyclo[3.2.1]octan-8-yl)ethan-1-one] |
| 0.0001 to 10 | 100 to 1000 | CN1CCC[C@H]1COc1nc(N2C[C@H]3CC[C@@H](C2)N3CC(=O)N2CCOCC2)c2ccc(-c3cc(O)cc4ccccc34)c(F)c2n1 [P-0428, 2-((1R,5S)-3-(8-fluoro-7-(3-hydroxynaphthalen-1-yl)-2-(((S)-1-methylpyrrolidin-2-yl)methoxy)quinazolin-4-yl)-3,8-diazabicyclo[3.2.1]octan-8-yl)-1-morpholinoethan-1-one] |
| 10 to 100 | 100 to 1000 | CN1CCC[C@H]1COc1nc(N2C[C@H]3CC[C@@H](C2)N3C2CNC2)c2ccc(-c3cc(O)cc4ccccc34)c(F)c2n1 [P-0430, 4-(4-((1R,5S)-8-(azetidin-3-yl)-3,8-diazabicyclo[3.2.1]octan-3-yl)-8-fluoro-2-(((S)-1-methylpyrrolidin-2-yl)methoxy)quinazolin-7-yl)naphthalen-2-ol] |
